From paper PMC6576746, “Rational discovery of dual-indication multi-target PDE/Kinase inhibitor for precision anti-cancer therapy using structural systems pharmacology” (PLoS Computational Biology, 2019) come the findings set out here.

Common to all, as to assay: biochemical
Design in all cases: DiscoverX KinomeScan competition binding assay across human kinases; per cent of control at 10 and 100 uM

One assay has as its target EPHB3 (Homo sapiens, UniProt P54753). To be noted: competition binding, % of control; read-out: Percent Control (100 uM Levosimendan). Put shortly:
(§1)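 KinomeScan competition binding was run across a human kinase panel at 10 μM and 100 μM levosimendan. Results are %control = (test − positive control)/(negative control − positive control) × 100.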

The target in assay [1] is T1, ABL1(F317L)-phosphorylated (Homo sapiens, UniProt P00519, F317L).
T1 construct: phosphorylated
To be noted: competition binding, % of control; read-out: Percent Control (100 uM Levosimendan). The method, boiled down: as §1

The target of a further assay is T2, MKK7 (Homo sapiens, UniProt O14733).
T2 construct: gene MAP2K7
To be noted: competition binding, % of control; read-out: Percent Control (100 uM Levosimendan). Put shortly:
as §1

Another assay concerns the target PIK3CA (Homo sapiens, UniProt P42336). To be noted: competition binding, % of control; read-out: Percent Control (100 uM Levosimendan). Put shortly:
as §1

In another assay the target is TYRO3 (Homo sapiens, UniProt Q06418). To be noted: competition binding, % of control; read-out: Percent Control (100 uM Levosimendan). The method, boiled down:
as §1

For a further assay, the target named is TRPM6 (Homo sapiens, UniProt Q9BX84). To be noted: competition binding, % of control; read-out: Percent Control (100 uM Levosimendan). Put shortly: as §1
A further assay concerns the target ROCK1 (Homo sapiens, UniProt Q13464). To be noted: competition binding, % of control; read-out: Percent Control (100 uM Levosimendan). Put shortly: as §1
A further assay has as its target SBK1 (Homo sapiens, UniProt Q52WX2). To be noted: competition binding, % of control; read-out: Percent Control (100 uM Levosimendan). Put shortly:
as §1

The next assay deals with T3, ICK (Homo sapiens, UniProt Q9UPZ9).
T3 construct: gene CILK1
The conditions noted are these: competition binding, % of control; read-out: Percent Control (100 uM Levosimendan). Put shortly:
as §1

The target of another assay is PIP5K1C (Homo sapiens, UniProt O60331). To be noted: competition binding, % of control. Put shortly: as §1
In a further assay the target is T4, MYLK4 (Homo sapiens, UniProt Q86YV6).
T4 sequence (Q86YV6 1-388): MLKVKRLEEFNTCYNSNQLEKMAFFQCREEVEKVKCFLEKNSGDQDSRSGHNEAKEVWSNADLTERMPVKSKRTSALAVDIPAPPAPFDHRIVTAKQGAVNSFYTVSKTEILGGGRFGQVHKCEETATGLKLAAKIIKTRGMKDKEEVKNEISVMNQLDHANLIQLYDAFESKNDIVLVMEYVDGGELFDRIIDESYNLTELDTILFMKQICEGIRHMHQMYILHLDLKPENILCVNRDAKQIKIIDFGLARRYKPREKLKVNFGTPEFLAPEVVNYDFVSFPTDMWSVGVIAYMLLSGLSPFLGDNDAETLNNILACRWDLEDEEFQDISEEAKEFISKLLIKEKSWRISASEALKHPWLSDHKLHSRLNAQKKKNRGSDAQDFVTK
The conditions noted are these: competition binding, % of control. Put shortly:
as §1

The target of assay [2] is T5, RSK2(Kin.Dom.2-C-terminal) (Homo sapiens, UniProt P51812).
T5 construct: gene RPS6KA3; Kin.Dom.2-C-terminal
The conditions noted are these: competition binding, % of control; read-out: Percent Control (100 uM Levosimendan). Put shortly: as §1

Another assay deals with T6, RIPK5 (Homo sapiens, UniProt Q6XUX3).
T6 construct: gene DSTYK
To be noted: competition binding, % of control; read-out: Percent Control (100 uM Levosimendan). The method, boiled down:
as §1

The target in the next assay is CAMK1 (Homo sapiens, UniProt Q14012). To be noted: competition binding, % of control; read-out: Percent Control (100 uM Levosimendan). Put shortly:
as §1

In a further assay the target is T7, PCTK3 (Homo sapiens, UniProt Q07002).
T7 construct: gene CDK18
To be noted: competition binding, % of control; read-out: Percent Control (100 uM Levosimendan). The method, boiled down: as §1

Assay [3] addresses T8, ABL1(M351T)-phosphorylated (Homo sapiens, UniProt P00519, M351T).
T8 construct: phosphorylated
To be noted: competition binding, % of control; read-out: Percent Control (100 uM Levosimendan). The method, boiled down:
as §1

Where [4] appears, read: read-out: Percent Control (10 uM Levosimendan).
Setting [5] is: read-out: Percent Control (100 uM Levosimendan).

Chain of PIP5K1C (O60331 whole entry): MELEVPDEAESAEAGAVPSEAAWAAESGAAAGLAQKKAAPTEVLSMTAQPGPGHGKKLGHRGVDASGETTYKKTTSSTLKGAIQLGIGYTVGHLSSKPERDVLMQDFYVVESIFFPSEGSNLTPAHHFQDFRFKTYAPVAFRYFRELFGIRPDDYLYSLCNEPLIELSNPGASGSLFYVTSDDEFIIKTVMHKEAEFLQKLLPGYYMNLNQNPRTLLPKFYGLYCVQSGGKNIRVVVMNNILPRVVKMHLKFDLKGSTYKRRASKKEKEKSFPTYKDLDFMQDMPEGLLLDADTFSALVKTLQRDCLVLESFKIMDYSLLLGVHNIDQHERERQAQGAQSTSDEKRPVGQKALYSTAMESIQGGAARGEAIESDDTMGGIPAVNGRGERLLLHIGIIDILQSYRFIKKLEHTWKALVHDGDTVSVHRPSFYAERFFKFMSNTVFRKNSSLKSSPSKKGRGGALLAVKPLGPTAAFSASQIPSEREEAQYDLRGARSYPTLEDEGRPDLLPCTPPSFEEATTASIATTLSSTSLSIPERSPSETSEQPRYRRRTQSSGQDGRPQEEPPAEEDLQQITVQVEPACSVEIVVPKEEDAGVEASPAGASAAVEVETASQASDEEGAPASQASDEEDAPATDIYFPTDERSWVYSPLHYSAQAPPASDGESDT
Chain of PIK3CA (P42336 whole entry): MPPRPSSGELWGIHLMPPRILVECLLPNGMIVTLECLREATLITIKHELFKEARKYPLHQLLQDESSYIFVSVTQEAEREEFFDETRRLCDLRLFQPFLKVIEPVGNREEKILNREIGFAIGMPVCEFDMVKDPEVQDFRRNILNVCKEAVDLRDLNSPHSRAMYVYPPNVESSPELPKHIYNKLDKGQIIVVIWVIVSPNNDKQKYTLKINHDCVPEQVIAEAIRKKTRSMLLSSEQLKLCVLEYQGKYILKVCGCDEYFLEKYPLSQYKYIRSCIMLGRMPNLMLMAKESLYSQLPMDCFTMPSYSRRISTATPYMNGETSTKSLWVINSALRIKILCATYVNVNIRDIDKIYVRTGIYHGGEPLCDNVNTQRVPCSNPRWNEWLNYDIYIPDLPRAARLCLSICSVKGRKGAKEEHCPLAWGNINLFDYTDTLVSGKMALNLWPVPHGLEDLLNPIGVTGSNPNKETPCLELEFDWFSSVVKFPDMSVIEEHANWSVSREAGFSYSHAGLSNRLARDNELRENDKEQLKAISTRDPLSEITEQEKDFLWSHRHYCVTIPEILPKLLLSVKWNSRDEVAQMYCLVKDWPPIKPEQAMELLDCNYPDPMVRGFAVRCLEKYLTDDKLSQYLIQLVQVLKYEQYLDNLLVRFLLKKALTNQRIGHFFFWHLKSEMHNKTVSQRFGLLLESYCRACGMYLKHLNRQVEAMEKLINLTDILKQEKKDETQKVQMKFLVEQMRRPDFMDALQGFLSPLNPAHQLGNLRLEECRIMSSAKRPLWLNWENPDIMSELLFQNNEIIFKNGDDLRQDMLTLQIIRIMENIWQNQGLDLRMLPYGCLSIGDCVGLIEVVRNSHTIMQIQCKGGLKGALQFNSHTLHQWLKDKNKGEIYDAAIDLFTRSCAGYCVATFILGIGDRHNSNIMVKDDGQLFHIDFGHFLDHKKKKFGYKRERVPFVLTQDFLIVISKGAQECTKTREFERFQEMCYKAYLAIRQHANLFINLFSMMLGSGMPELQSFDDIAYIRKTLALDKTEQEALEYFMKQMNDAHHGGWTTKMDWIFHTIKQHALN
T5 sequence (P51812 whole entry): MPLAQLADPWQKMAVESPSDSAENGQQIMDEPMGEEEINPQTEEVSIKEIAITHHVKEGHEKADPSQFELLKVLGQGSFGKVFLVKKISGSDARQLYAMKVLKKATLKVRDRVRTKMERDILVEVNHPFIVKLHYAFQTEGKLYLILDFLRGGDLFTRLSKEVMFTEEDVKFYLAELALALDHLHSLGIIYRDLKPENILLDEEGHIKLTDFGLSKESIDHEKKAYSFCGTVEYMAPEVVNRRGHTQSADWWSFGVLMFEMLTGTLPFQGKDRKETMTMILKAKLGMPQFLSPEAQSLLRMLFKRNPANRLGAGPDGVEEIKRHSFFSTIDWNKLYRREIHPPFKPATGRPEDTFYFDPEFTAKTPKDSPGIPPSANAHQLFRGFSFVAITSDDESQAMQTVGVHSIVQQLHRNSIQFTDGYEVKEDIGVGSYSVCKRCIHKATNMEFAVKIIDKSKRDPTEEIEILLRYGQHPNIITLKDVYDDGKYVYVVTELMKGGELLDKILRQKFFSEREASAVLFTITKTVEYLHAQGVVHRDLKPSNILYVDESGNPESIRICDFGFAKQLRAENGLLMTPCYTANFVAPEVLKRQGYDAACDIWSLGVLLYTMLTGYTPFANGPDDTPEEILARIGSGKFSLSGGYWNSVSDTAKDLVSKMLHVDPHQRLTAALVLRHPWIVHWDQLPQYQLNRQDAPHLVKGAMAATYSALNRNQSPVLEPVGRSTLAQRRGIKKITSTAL
Chain of TRPM6 (Q9BX84 whole entry): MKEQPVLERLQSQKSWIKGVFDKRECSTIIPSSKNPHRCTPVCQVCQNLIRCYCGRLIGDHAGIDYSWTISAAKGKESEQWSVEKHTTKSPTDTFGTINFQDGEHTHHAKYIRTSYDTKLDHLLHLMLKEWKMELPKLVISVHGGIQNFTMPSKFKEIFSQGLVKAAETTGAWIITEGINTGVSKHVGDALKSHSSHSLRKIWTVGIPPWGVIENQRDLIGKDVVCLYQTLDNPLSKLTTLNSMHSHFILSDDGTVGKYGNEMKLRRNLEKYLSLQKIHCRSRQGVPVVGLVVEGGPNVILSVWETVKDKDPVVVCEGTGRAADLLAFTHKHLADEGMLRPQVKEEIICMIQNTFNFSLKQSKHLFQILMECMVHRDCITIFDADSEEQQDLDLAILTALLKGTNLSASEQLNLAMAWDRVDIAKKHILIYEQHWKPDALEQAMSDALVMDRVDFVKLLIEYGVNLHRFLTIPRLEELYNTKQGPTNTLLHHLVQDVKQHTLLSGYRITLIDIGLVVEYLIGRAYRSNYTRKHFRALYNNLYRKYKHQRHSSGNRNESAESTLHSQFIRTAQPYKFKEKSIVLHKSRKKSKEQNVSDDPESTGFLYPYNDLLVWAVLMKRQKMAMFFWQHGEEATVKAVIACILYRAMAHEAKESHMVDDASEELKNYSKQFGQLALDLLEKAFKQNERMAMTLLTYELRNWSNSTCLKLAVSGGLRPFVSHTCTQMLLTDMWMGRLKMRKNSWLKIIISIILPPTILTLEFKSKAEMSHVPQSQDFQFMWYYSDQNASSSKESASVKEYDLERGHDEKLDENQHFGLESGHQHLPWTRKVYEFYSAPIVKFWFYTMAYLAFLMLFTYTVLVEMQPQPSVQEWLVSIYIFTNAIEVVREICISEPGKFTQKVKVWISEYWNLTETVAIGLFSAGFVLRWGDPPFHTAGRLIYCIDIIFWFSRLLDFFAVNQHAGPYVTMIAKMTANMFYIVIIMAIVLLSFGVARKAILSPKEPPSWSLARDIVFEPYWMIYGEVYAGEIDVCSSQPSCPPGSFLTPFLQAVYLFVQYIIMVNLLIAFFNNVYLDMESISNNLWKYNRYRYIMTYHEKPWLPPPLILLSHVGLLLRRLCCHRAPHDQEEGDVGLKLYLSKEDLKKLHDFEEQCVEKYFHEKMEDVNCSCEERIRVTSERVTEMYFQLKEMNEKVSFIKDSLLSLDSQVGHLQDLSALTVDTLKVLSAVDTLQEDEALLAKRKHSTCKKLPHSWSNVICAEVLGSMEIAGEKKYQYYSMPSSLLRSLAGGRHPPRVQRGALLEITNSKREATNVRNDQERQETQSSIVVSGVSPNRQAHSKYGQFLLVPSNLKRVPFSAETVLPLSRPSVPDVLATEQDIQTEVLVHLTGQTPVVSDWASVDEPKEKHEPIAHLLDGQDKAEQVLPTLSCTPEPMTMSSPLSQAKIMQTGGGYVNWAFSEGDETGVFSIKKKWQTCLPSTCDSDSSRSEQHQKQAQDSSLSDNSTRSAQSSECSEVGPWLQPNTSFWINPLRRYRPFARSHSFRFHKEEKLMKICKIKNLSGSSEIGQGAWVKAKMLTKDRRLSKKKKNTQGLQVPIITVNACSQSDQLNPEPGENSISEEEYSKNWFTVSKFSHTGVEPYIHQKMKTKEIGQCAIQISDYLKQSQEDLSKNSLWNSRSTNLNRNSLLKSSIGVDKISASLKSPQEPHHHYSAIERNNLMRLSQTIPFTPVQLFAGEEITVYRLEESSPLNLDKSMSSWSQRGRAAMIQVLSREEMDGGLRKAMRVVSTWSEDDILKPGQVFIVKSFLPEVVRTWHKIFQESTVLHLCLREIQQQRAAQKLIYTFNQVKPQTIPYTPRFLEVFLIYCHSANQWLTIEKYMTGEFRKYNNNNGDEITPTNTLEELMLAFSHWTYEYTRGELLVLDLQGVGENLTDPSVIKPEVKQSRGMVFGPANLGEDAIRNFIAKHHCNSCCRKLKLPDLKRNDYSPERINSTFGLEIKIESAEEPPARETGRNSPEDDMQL
T3 sequence (Q9UPZ9 whole entry): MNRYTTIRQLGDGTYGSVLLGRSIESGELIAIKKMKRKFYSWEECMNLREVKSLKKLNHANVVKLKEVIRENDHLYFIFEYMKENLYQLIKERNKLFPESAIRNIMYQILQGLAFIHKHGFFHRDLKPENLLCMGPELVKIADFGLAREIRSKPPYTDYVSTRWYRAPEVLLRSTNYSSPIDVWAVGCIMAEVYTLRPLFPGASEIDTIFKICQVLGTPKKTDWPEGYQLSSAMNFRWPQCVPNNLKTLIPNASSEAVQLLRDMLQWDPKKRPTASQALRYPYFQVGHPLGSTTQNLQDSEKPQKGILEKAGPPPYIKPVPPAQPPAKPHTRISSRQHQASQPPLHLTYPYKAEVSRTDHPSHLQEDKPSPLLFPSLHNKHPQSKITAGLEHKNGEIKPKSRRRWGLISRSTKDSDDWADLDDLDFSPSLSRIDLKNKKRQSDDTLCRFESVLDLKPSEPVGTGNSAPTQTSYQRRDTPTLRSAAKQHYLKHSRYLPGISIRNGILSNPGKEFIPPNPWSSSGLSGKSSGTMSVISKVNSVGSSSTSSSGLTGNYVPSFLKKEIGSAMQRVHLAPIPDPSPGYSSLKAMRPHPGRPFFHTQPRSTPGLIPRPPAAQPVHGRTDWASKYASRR

Turning to `C[C@@H]1CC(=O)NN=C1c1ccc(NN=C(C#N)C#N)cc1` [levosimendan], the remaining binding at 100 µM at EPHB3 turned out to be 96%; in [1], 59%; at MKK7, 100%; at PIK3CA, 96%; on TYRO3, 94%; on TRPM6, 89%. Besides, the remaining binding at 100 µM on ROCK1 stood at 90%; at SBK1 it was 78%; on ICK it was 94%; on PIP5K1C (setting [5]), 50%; at MYLK4 (setting [5]) it was 24%; in assay [2], 66%. The remaining binding at 100 µM came to 60% at RIPK5, 77% on CAMK1, 100% on PCTK3 and 79% in [3]. For the same compound, the remaining binding at 10 µM came out at 91% on PIP5K1C (setting [4]) and 85% at MYLK4 (setting [4]).
